Reference: PMC3157365 (Journal of medicinal chemistry, 2008)

Columns and labels:
hD2LR = hD2LR (Homo sapiens, UniProt P14416); assay: Displacement of 125I-IABN in HEK 293 cells transfected with hD2LR; format: binding; details: for decrease in binding at D2R compared to the piperidinol (unbridged) analogue: comparator from ref 28
hD3R = hD3R (Homo sapiens, UniProt P35462); assay: Displacement of 125I-IABN in HEK 293 cells transfected with hD3R; format: binding; details: vs 1
D2R = D2R (Homo sapiens, UniProt P14416); assay: Functional assay at D2R; format: cell-based
Sequence of D2R (P14416 whole entry): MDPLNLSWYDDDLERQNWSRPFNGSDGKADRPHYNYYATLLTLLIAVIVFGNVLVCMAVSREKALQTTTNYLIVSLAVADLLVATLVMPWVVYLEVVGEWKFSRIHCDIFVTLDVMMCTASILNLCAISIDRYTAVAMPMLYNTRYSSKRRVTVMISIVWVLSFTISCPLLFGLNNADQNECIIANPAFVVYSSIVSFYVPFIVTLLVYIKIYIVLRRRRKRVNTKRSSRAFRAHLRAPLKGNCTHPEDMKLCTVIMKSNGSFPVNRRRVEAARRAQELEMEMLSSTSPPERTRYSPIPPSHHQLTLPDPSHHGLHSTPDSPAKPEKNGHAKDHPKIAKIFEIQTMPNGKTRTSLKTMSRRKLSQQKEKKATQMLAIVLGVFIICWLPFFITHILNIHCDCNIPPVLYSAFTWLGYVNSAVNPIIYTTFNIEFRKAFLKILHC

D3R = D3R (Homo sapiens, UniProt P35462); assay: Functional assay at D3R; format: cell-based
Sequence of D3R (P35462 whole entry): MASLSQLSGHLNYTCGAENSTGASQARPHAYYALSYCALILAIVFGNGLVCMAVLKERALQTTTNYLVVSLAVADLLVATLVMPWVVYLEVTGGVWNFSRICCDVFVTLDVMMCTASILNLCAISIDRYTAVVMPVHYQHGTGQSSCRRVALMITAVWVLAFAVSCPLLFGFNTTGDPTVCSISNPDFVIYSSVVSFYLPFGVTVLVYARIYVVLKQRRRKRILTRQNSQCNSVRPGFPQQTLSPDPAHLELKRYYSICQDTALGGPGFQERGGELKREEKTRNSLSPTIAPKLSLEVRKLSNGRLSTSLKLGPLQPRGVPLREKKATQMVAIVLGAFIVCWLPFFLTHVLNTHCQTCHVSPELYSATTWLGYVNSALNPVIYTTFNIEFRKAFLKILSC

Sequence of hD2LR (P14416 whole entry): as the sequence (P14416 whole entry) above
Sequence of hD3R (P35462 whole entry): as the sequence (P35462 whole entry) above

SMILES | decrease in binding at D2R compared to the piperidinol (unbridged) analogue (hD2LR) [fold] | functional efficacy at D2R (D2R) | functional efficacy at D3R (D3R) | other results
CSc1ccc([C@]2(O)C[C@H]3CC[C@@H](C2)N3Cc2c[nH]c3ccccc23)cc1 [Compound 37, endo-8-(1H-Indol-3-ylmethyl)-3-(4-(methylthio)phenyl)-8-azabicyclo[3.2.1]octan-3-ol] | 24 | – | – | –
O[C@]1(c2ccc(Cl)cc2)C[C@H]2CC[C@@H](C1)N2Cc1c[nH]c2ccccc12 [Compound 31, endo-8-(1H-Indol-3-ylmethyl)-3-(4-chlorophenyl)-8-azabicyclo-[3.2.1]octan-3-ol] | – | antagonists | antagonists | decrease in affinity at D2R compared to 1 (hD2LR; vs 1): 3 fold; increase in D3R binding affinity compared to the parent ligand 1 (hD3R): 10 fold
O[C@@]1(c2ccc(Cl)cc2)C[C@H]2CC[C@@H](C1)N2Cc1csc2ccccc12 [Compound 41, endo-8-(Benzothien-3-ylmethyl)-3-(4-chlorophenyl)-8-azabicyclo[3.2.1]octan-3-ol] | – | antagonists | antagonists | –
OC1(c2ccc(Cl)c(Cl)c2)CCN(Cc2c[nH]c3ccccc23)CC1 [Compound 2, reference compound] | – | – | – | selectivity for the D2 receptor subtype (hD2LR; D2R over D3R): more than 10 fold
COc1ccc2[nH]cc(CN3[C@@H]4CC[C@H]3C[C@](O)(c3ccc(SC)cc3)C4)c2c1 [Compound 40, endo-8-(5-Methoxy-1H-indol-3-ylmethyl)-3-(4-methylthiophenyl)-8-azabicyclo[3.2.1]octan-3-ol] | 100 | – | – | –
O[C@@]1(c2ccc(Cl)c(Cl)c2)C[C@H]2CC[C@@H](C1)N2Cc1c[nH]c2ccccc12 [Compound 32, endo-8-(1H-Indol-3-ylmethyl)-3-(3,4-dichlorophenyl)-8-azabicyclo[3.2.1]octan-3-ol] | – | – | antagonists | –
